Biological target: wild-type (WT) FKBP12 (in iRC9) (Homo sapiens, UniProt P62942)
Assay: Cross-activation of iRC9 apoptosis by high rimiducid in transfected HEK293 cells
Type: cell-based

Sequence of wild-type (WT) FKBP12 (in iRC9) (P62942 2-108): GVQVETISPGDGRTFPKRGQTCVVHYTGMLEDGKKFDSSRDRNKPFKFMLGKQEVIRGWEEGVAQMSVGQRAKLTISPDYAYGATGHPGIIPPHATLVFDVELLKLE

CC[C@H](C(=O)N1CCCC[C@H]1C(=O)O[C@H](CCc1ccc(OC)c(OC)c1)c1cccc(OCC(=O)NCCNC(=O)COc2cccc([C@@H](CCc3ccc(OC)c(OC)c3)OC(=O)[C@@H]3CCCCN3C(=O)[C@@H](CC)c3cc(OC)c(OC)c(OC)c3)c2)c1)c1cc(OC)c(OC)c(OC)c1 [Rim, rimiducid]
Cross-activation of iRC9 apoptosis by high rimiducid in transfected HEK293 cells: > 100 nM

Reference: publication PMC6357218 (Molecular Therapy Oncolytics, 2018)
